Laboratory results: PMC4809247 (Journal of medicinal chemistry, 2015)

Target: rat mGlu3 (Rattus norvegicus, UniProt P31422)
Details: calcium mobilization; average of n ≥ 3

Chain of rat mGlu3 (P31422 23-879): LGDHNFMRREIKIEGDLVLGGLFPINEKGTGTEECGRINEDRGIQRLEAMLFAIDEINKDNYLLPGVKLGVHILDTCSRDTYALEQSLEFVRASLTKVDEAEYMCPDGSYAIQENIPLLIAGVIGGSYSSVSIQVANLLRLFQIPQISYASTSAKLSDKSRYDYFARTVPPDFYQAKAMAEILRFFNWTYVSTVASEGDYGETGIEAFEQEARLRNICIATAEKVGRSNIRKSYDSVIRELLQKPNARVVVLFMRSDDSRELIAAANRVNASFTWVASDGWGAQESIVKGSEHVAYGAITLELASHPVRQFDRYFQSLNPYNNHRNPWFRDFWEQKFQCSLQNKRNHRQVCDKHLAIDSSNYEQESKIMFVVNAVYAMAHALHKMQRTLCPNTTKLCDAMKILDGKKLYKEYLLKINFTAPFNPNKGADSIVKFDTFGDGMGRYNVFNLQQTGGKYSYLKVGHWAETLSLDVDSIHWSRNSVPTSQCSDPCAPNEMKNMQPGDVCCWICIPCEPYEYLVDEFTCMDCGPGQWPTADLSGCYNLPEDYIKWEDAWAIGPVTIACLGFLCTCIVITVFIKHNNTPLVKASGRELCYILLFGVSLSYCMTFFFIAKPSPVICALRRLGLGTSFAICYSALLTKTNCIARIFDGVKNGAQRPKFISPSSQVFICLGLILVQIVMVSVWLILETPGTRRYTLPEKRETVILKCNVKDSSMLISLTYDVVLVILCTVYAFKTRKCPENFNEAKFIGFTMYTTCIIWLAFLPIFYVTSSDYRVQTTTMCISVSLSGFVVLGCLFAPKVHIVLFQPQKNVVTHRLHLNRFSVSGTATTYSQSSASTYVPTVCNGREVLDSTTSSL

Structure (SMILES) | mGlu3 pIC50 (± SEM)
C[C@@H]1CN(c2ccc(F)cc2)C(=O)c2cc(COc3ccccc3Cl)nn21 [Compound 29] | 6.27 ± 0.18
COc1ccccc1OCc1cc2n(n1)[C@H](C)CN(c1ccc(F)cc1)C2=O [Compound 32] | 5.59 ± 0.18
C[C@@H]1CN(c2ccc(F)cc2)C(=O)c2cc(COc3ncccc3F)nn21 [Compound 41] | 5.96 ± 0.02
Cc1ccnc(OCc2cc3n(n2)[C@H](C)CN(c2ccc(F)cc2)C3=O)c1 [Compound 44] | 5.68 ± 0.01
C[C@@H]1CN(c2ccc(F)cc2)C(=O)c2cc(COc3cc(C(F)(F)F)ccn3)nn21 [Compound 45] | 5.78 ± 0.01
COc1ccnc(OCc2cc3n(n2)[C@H](C)CN(c2ccc(F)cc2)C3=O)c1 [Compound 46] | 5.43 ± 0.00
C[C@@H]1CN(c2ccc(F)cc2)C(=O)c2cc(COc3ccc(F)cn3)nn21 [Compound 47] | 6.27 ± 0.02
Cc1cccc(OCc2cc3n(n2)[C@H](C)CN(c2ccc(F)cc2)C3=O)n1 [Compound 49] | 5.62 ± 0.02
C[C@@H]1CN(c2ccc(Cl)cc2)C(=O)c2cc(COc3ccc(F)cn3)nn21 [Compound 59] | 6.71 ± 0.13
COc1cccc(N2C[C@@H](C)n3nc(COc4ccc(F)cn4)cc3C2=O)c1 [Compound 64] | 6.70 ± 0.06
COc1ccc(N2C[C@@H](C)n3nc(COc4ccc(F)cn4)cc3C2=O)cc1 [Compound 65] | 6.49 ± 0.10
C[C@@H]1CN(c2cccnc2)C(=O)c2cc(COc3ccc(F)cn3)nn21 [Compound 70] | 6.36 ± 0.13
C[C@@H]1CN(c2ccc(F)cn2)C(=O)c2cc(COc3ccc(F)cn3)nn21 [Compound 72] | 6.46 ± 0.07
C[C@@H]1CN(c2ccccc2F)C(=O)c2cc(COc3ccc(Cl)cn3)nn21 [Compound 80] | 6.65 ± 0.04
C[C@@H]1CN(c2cccc(F)c2)C(=O)c2cc(COc3ccc(Cl)cn3)nn21 [Compound 81] | 6.69 ± 0.04
C[C@@H]1CN(c2ccccc2Cl)C(=O)c2cc(COc3ccc(Cl)cn3)nn21 [Compound 82] | 6.48 ± 0.08
C[C@@H]1CN(c2cccc(Cl)c2)C(=O)c2cc(COc3ccc(Cl)cn3)nn21 [Compound 83] | 6.25 ± 0.07
C[C@@H]1CN(c2ccc(Cl)cc2)C(=O)c2cc(COc3ccc(Cl)cn3)nn21 [Compound 84] | 5.91 ± 0.25
Cc1ccccc1N1C[C@@H](C)n2nc(COc3ccc(Cl)cn3)cc2C1=O [Compound 85] | 6.24 ± 0.18
Cc1cccc(N2C[C@@H](C)n3nc(COc4ccc(Cl)cn4)cc3C2=O)c1 [Compound 86] | 6.41 ± 0.05
Cc1ccc(N2C[C@@H](C)n3nc(COc4ccc(Cl)cn4)cc3C2=O)cc1 [Compound 87] | 6.39 ± 0.21
COc1cccc(N2C[C@@H](C)n3nc(COc4ccc(Cl)cn4)cc3C2=O)c1 [Compound 89] | 6.50 ± 0.05
C[C@@H]1CN(c2ccccc2C#N)C(=O)c2cc(COc3ccc(Cl)cn3)nn21 [Compound 91] | 6.37 ± 0.05
C[C@@H]1CN(c2cccc(C#N)c2)C(=O)c2cc(COc3ccc(Cl)cn3)nn21 [Compound 92] | 6.08 ± 0.26
C[C@@H]1CN(c2ccc(C#N)cc2)C(=O)c2cc(COc3ccc(Cl)cn3)nn21 [Compound 93] | 6.27 ± 0.05
C[C@@H]1CN(c2ccc(F)cc2F)C(=O)c2cc(COc3ccc(Cl)cn3)nn21 [Compound 95] | 6.55 ± 0.08
C[C@@H]1CN(c2cc(F)cc(F)c2)C(=O)c2cc(COc3ccc(Cl)cn3)nn21 [Compound 97] | 6.38 ± 0.07
C[C@@H]1CN(c2ncccc2F)C(=O)c2cc(COc3ccc(Cl)cn3)nn21 [Compound 102] | 6.44 ± 0.03
C[C@@H]1CN(c2ccc(F)cn2)C(=O)c2cc(COc3ccc(Cl)cn3)nn21 [Compound 104] | 6.59 ± 0.09
